Measured values reported in the NIST ThermoML archive (doi:10.1016/j.jct.2013.10.018).
Numbers after ± are expanded uncertainties.

Details: 101.33 kPa, Liquid; for speed of sound: Sing-around technique in a fixed-path interferometer; for mass density: Vibrating tube method

speed of sound (298.15 K) | mass density (298.15 K) | speed of sound (303.15 K) | mass density (303.15 K) | speed of sound (308.15 K) | mass density (308.15 K) | speed of sound (313.15 K) | mass density (313.15 K) | speed of sound (318.15 K) | mass density (318.15 K) | speed of sound (323.15 K) | mass density (323.15 K) | SMILES
1380 ± 3 m/s | 826.36 ± 0.24 kg/m3 | 1363 ± 3 m/s | 822.88 ± 0.24 kg/m3 | 1346 ± 3 m/s | 819.43 ± 0.24 kg/m3 | 1329 ± 3 m/s | 815.97 ± 0.24 kg/m3 | 1312 ± 3 m/s | 812.49 ± 0.24 kg/m3 | 1296 ± 3 m/s | 809.03 ± 0.24 kg/m3 | CCCCCCCCCCO [decan-1-ol]
1349 ± 3 m/s | 821.74 ± 0.26 kg/m3 | 1332 ± 3 m/s | 818.26 ± 0.26 kg/m3 | 1315 ± 3 m/s | 814.76 ± 0.26 kg/m3 | 1299 ± 3 m/s | 811.24 ± 0.26 kg/m3 | 1282 ± 3 m/s | 807.69 ± 0.26 kg/m3 | 1265 ± 3 m/s | 804.12 ± 0.26 kg/m3 | CCCCCCCCO [octan-1-ol]
